Active and inactive are the calls of the source.
Assays:
[1] = target: T1, Sentrin-specific protease 6 (Homo sapiens, UniProt Q9GZR1); format: functional;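 also: Luminescence-based dose-response confirmatory assay of SENP6 inhibition, following up an ultra-high-throughput screen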
T1 sequence (Q9GZR1 whole entry): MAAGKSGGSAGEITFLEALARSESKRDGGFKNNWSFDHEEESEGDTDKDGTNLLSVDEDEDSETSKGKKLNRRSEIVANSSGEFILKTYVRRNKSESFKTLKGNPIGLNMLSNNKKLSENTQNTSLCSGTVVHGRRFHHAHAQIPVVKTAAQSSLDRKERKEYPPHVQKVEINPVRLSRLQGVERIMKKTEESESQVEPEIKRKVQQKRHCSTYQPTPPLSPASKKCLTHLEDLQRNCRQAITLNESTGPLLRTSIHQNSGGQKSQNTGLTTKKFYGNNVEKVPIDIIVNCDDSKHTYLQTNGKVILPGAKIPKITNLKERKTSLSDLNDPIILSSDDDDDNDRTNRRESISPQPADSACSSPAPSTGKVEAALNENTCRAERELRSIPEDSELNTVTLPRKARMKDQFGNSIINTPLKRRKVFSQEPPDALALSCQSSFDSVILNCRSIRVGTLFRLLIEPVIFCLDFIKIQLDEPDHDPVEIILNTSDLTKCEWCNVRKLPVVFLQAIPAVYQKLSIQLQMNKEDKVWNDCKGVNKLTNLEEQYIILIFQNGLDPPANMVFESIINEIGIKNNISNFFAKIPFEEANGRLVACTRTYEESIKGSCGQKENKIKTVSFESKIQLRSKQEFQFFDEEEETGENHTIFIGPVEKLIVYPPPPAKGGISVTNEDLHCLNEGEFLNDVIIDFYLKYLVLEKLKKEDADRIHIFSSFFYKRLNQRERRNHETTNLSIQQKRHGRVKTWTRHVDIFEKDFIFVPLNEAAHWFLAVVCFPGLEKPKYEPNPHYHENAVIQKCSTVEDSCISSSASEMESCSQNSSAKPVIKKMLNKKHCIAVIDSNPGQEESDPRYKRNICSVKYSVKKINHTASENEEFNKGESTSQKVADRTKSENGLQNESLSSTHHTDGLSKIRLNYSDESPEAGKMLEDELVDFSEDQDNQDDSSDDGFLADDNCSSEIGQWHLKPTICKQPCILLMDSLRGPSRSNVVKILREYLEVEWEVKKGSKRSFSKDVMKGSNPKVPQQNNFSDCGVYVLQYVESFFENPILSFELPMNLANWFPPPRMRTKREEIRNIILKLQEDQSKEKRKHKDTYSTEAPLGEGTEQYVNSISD

[2] = target: T2, Sentrin-specific protease 8 (Homo sapiens, UniProt Q96LD8); format: functional;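 also: luminescence read-out of SENP8 inhibition, dose-response confirmation following an ultra-high-throughput screen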
T2 sequence (Q96LD8 whole entry): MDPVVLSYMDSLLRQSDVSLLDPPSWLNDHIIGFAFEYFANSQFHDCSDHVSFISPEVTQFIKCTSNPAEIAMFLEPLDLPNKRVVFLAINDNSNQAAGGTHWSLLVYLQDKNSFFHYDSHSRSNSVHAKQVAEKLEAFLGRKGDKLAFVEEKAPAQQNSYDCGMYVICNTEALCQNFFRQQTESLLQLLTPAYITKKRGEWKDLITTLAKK

Caspase-3 = target: T3, Caspase-3 (Homo sapiens, UniProt P42574); format: functional;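 also: Dose-response selectivity test against caspase-3 for candidate inhibitors of sentrin-specific proteases (SENPs)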
T3 sequence (P42574 whole entry): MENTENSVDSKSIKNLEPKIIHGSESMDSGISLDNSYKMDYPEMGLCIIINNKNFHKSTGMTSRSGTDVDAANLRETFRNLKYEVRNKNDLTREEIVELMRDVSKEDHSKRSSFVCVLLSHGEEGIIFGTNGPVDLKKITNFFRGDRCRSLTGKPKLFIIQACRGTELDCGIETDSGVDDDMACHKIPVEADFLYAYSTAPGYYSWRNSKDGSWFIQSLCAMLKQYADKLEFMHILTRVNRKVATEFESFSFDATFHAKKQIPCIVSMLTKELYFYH

HeLa = experiment: ATP-based viability loss in HeLa cells – cell-based, CellTiter-Glo luminescence, cherry-pick samples, cytotoxicity control for MITF activator project, dose response (AID 540259); format: functional; details: Homo sapiens
[3] = target: 5-hydroxytryptamine receptor 5A (Homo sapiens, UniProt P47898); experiment: Counterscreen for agonists of OPRM1-OPRD1 heterodimerization: luminescence-based cell-based high throughput dose response assay to identify agonists of 5-hydroxytryptamine (serotonin) 5A receptor (HTR5A). [Related pubchem assays (depositor defined):AID504326, AID504355, AID504692, AID504904, AID504905]; format: functional
Mu-type opioid receptor = Mu-type opioid receptor (Homo sapiens, UniProt P35372); experiment: (§1) Counterscreen for agonists of heterodimerization of the mu 1 (OPRM1) and delta 1 (OPRD1) opioid receptors: Luminescence-based cell-based high throughput dose response assay to identify agonists of OPRM1 homodimerization.; format: functional
[4] = target: T4, Short transient receptor potential channel 4 (Mus musculus, UniProt Q9QUQ5); experiment: calcium entry via TRPC4 opening agents – cell-based, HEK293 TRPC4/mu-opioid, Fluo-4 calcium, dose response (AID 434937); format: functional
T4 sequence (Q9QUQ5 whole entry): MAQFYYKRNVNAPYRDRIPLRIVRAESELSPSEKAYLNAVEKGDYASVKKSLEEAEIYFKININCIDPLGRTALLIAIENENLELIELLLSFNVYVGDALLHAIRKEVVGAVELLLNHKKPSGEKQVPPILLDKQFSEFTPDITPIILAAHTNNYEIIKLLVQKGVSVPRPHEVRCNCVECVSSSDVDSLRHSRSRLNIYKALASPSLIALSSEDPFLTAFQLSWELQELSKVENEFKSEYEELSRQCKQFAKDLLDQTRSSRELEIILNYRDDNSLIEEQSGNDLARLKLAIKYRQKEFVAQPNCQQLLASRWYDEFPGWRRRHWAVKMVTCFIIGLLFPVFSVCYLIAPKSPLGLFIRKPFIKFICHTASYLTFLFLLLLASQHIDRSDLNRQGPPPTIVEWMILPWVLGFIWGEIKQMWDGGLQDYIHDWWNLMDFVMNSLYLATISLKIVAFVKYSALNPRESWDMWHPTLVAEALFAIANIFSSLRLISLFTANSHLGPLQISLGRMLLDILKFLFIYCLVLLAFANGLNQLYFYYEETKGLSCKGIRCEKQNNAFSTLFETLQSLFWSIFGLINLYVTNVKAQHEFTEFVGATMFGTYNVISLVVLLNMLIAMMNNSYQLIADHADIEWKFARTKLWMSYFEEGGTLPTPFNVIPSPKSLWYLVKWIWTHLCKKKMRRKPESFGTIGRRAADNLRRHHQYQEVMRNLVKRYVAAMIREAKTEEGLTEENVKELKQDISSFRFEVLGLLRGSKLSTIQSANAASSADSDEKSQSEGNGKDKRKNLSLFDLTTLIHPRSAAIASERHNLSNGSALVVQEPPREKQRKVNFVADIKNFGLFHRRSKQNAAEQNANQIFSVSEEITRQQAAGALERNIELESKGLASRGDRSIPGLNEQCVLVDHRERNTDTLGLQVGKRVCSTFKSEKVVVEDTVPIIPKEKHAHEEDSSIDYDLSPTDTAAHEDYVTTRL

[5] = target: Delta-type opioid receptor (Homo sapiens, UniProt P41143); experiment: as §1, with “of OPRD1” for “of OPRM1”, “homodimerization. [Related pubchem assays (depositor defined):AID504326, AID504355, AID504692, AID504904, AID504905]” for “homodimerization.”; format: functional
[6] = target: ATP-dependent molecular chaperone HSP82 (Candida albicans (strain WO-1) (Yeast), UniProt C4YTQ8); experiment: steroid-induced GRE reporter decrease in yeast – S. cerevisiae, luminescence, Hsp90 inhibitor project, dose response (AID 2400); format: functional, cell-based;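 also: beta-galactosidase luminescence from glucocorticoid response element reporter as proxy for Hsp90 function; inhibitor potency where signal loss means Hsp90 inhibition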
[7] = fluconazole-exposed Candida albicans growth modulators – fluorescence, retest, confirmation (AID 2467); format: functional, cell-based
[8] = target: T5, Corticotropin-releasing factor receptor 2/Corticotropin-releasing factor-binding protein (Homo sapiens, UniProt P24387+Q13324); experiment: activators of CRF receptor 2 with binding protein – uHTS hits, confirmation (AID 602473); format: functional; details: read-out: EC50_Mean
T5 sequence (Q13324 whole entry): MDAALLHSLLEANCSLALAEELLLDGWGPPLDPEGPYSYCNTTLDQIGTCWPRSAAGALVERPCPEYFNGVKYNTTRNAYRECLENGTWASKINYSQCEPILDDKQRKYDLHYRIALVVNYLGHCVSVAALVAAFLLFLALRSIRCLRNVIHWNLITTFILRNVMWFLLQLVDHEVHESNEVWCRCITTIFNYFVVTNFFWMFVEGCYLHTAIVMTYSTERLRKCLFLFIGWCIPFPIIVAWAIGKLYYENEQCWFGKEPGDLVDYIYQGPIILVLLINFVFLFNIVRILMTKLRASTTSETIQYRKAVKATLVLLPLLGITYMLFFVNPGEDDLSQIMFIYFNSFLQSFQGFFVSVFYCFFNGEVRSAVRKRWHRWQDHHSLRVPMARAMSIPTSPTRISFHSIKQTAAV
T5 sequence (P24387 whole entry): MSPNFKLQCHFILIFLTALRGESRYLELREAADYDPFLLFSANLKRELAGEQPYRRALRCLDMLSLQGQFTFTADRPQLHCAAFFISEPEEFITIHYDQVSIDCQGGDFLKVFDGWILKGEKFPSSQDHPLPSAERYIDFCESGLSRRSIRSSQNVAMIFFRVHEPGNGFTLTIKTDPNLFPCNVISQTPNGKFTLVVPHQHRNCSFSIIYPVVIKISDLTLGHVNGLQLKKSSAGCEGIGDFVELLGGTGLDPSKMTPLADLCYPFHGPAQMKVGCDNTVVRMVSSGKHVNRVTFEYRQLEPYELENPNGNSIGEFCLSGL

[9] = target: T5, Corticotropin-releasing factor receptor 2/Corticotropin-releasing factor-binding protein; experiment: Dose Response confirmation of uHTS hits for small molecule antagonists of the CRF-binding protein and CRF-R2 receptor complex.; format: functional; details: read-out: IC50_Mean
[10] = NIH-3T3 fibroblast cytotoxicity, dose response, cytotoxicity control, cell-based, fluorescence, Alamar Blue, secondary assay (AID 2327); format: functional;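 also: NIH-3T3 mouse fibroblasts cultured with fluconazole at 8 µg/mL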
[11] = target: T6, Serine/threonine-protein phosphatase (Candida dubliniensis (strain CD36 / CBS 7987 / NCPF 3949 / NRRLY-17841) (Yeast), UniProt B9W6M3); experiment: blockers of CaCl2-induced CDRE-lacZ signaling – S. cerevisiae, luminescence, secondary, dose response (AID 2388); format: functional, cell-based;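 also: yeast reporter cells carrying a calcineurin-responsive lacZ construct stimulated with calcium chloride; luminescent beta-galactosidase reporter signal in whole cells rather than isolated phosphatase activity; potency for inhibition where a drop in reporter signal means calcineurin blockade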
T6 sequence (B9W6M3 whole entry): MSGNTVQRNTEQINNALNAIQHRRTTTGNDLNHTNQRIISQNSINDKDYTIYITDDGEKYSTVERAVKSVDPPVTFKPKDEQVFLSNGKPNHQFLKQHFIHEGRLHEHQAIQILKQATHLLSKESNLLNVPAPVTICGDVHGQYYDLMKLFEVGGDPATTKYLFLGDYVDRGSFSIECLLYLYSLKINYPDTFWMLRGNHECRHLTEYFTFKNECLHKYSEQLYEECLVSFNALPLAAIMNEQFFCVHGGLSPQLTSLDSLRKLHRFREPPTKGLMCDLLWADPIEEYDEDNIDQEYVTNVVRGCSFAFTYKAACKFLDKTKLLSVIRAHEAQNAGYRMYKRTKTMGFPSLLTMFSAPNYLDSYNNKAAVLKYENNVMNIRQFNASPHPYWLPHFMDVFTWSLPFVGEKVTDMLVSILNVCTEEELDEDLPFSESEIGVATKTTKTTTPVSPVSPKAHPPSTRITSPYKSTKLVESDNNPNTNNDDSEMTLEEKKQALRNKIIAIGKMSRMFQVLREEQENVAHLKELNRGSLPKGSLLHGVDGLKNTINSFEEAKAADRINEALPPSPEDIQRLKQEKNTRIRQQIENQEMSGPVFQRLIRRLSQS

[12] = Luminescence Cell-Based Dose Response HTS to Identify Activators of Luciferase Translation or Activity in H4 […] Cells. [Related pubchem assays: 1829 (Project Summary), 1814 (Primary HTS)]; format: functional
H4 = experiment: Luminescence Cell-Based Dose Response HTS to Identify Activators of 5'UTR Stem-Loop Driven Prion Protein mRNA Translation in H4 Neuroglioblastoma Cells. [Related pubchem assays: 1829 (Project Summary), 1814 (Primary HTS)]; format: functional; details: Homo sapiens

Sequence of 5-hydroxytryptamine receptor 5A (P47898 whole entry): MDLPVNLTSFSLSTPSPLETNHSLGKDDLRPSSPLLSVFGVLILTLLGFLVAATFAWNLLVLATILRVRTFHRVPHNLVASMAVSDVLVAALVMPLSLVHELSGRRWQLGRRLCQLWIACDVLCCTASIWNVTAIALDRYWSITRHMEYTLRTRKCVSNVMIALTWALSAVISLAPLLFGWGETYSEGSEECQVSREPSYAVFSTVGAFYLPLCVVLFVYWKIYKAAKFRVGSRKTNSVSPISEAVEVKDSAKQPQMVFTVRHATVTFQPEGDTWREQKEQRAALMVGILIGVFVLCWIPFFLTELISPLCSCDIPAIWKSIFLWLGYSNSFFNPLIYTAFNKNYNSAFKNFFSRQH
Sequence of Delta-type opioid receptor (P41143 whole entry): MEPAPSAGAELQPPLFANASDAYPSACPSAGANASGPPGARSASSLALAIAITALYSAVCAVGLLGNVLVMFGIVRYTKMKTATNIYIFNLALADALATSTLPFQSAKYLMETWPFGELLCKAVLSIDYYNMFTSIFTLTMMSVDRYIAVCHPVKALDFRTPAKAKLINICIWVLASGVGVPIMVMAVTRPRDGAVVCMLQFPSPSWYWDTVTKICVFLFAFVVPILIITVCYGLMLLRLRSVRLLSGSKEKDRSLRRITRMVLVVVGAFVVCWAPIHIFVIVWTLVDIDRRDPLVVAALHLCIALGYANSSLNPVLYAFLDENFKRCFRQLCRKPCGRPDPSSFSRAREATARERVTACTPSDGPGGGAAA
Sequence of Mu-type opioid receptor (P35372 whole entry): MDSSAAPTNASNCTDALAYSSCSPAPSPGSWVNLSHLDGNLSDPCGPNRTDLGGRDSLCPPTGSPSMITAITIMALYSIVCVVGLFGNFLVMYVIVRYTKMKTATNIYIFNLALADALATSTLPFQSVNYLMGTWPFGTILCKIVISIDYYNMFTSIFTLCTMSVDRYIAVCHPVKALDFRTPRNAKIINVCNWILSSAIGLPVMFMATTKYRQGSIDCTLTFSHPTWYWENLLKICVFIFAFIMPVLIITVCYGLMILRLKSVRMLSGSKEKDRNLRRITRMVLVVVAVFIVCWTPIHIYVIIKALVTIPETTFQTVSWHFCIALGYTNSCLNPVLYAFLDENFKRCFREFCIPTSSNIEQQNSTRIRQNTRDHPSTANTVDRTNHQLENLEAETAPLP
Sequence of ATP-dependent molecular chaperone HSP82 (C4YTQ8 whole entry): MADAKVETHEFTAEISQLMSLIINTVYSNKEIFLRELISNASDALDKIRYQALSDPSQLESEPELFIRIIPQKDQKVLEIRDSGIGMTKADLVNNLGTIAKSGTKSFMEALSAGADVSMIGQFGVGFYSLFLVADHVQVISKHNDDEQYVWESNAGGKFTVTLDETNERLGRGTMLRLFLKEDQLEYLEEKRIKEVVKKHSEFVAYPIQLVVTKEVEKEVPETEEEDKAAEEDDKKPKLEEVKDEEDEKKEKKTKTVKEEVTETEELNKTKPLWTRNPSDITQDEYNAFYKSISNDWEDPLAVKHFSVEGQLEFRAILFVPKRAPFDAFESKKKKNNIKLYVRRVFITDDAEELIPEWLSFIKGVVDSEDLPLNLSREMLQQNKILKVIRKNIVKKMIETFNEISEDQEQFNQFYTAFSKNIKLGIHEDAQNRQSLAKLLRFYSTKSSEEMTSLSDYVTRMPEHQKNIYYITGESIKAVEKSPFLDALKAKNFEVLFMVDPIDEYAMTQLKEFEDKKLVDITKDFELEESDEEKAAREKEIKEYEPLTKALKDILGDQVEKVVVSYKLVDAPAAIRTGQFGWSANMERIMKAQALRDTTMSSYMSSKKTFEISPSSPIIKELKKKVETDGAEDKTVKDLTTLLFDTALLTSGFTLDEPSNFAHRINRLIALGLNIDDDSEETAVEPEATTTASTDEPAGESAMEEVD

Compound: COC(=O)c1sccc1NC(=O)CCC1CCCCC1
- IC50 [1]: 62.8 µM (active)
- IC50 [2]: > 100 µM (inactive)
- IC50 (Caspase-3): 27.9 µM (active)

Compound: O=S(=O)(Cc1cc(-c2ccccc2Cl)no1)c1ccccc1
- AC50 (HeLa): 51.8 µM (active)

Compound: COc1cc(OC)c2c(-c3cccc(/C=C/c4ccc(F)cc4)c3)cc(=O)oc2c1
- AC50 (HeLa): 165 µM (active)

Compound: Cc1cc(C)cc(C(=O)N(CCc2ccccc2)C2=CC3CCC(C2)N3C)c1 (stereo not drawn)
- EC50 [3]: > 92.5 µM (inactive)
- EC50 (Mu-type opioid receptor): 43.9 µM (inactive)
- EC50 [4]: 0.267 µM (active)
- EC50 [5]: > 92.5 µM (inactive)

Compound: CCCCc1ccc(Nc2ncccc2C#N)cc1
- IC50 [1]: 17.2 µM (active)
- IC50 [2]: 33.1 µM (active)
- IC50 (Caspase-3): 21.3 µM (active)

Compound: COc1cc(NC(=O)c2cccc(C)c2)ccc1NC(=O)c1cc2ccccc2o1
- EC50 [3]: > 92.4 µM (inactive)
- EC50 (Mu-type opioid receptor): > 92.4 µM (inactive)
- EC50 [5]: > 92.4 µM (inactive)

Compound: CN(C)C(CNC(=O)C1CC(=O)N(Cc2ccccc2)C1)c1ccccc1 (stereo not drawn)
- EC50 [3]: > 92.5 µM (inactive)
- EC50 (Mu-type opioid receptor): > 92.5 µM (inactive)
- EC50 [4]: 1.33 µM (active)
- EC50 [5]: > 92.5 µM (inactive)

Compound: Cc1nn(-c2ccccc2)c(Cl)c1/C=C/C(=O)c1ccc(O)cc1
- EC50 [6]: 18.9 µM (active)
- EC50 [7]: 1.1 µM (active)
- EC50 [8]: > 53 µM (inactive)
- IC50 [9]: > 47.1 µM (inactive)
- EC50 [10]: > 150 µM (inactive)
- EC50 [11]: > 180 µM (inactive)

Compound: Clc1cnc(N/N=C/c2cccs2)c(Cl)c1
- EC50 [12]: 0.411 µM (active)
- AC50 (HeLa): 62.4 µM (active)
- EC50 (H4): 0.136 µM (active)

From ChEMBL document CHEMBL1201862, “PubChem BioAssay data set” (2004)
